Results taken from patent publication US20230017045A1, “PYRIDINE AND PYRIMIDINE CARBOXYLATE HERBICIDES AND METHODS OF USE THEREOF” (Dow AgroSciences LLC, priority 2017, published 2023).
Read-outs that look alike come from different tables or passages of the source.

System: test plant species
Assay: Post-emergent herbicidal activity test (greenhouse, foliar spray, visual growth reduction)
Format: in vivo
Settings: post-emergence, 336 h, 140 g ai/ha
Protocol: Post-emergent Test: Seeds or nutlets of the desired test plant species were planted in Sun Gro Metro-Mix® 360 planting mixture, which typically has a pH of 6.0 to 6.8 and an organic matter content of about 30 percent, in plastic pots with a surface area of 64 square centimeters. In some aspects, to ensure good germination and healthy plants, a fungicide treatment and/or other chemical or physical treatment was applied. The plants were grown for 7-21 d in a greenhouse with an approximate 15 h photoperiod which was maintained at 23-29° C. during the day and 22-28° C. during the night. Nutrients and water were added on a regular basis and supplemental lighting was provided with overhead metal halide 1000-Watt lamps as necessary. Plants were used for testing when they reached the first or second true leaf stage. A weighed amount, determined by the highest rate to be tested, of each test compound was placed in a 25 mL glass vial and was dissolved in 4 mL of a 97:3 v/v mixture of acetone and DMSO to obtain concentrated stock solutions. […] The concentrated stock solutions obtained were diluted with 20 mL of an aqueous mixture containing acetone, water, isopropyl alcohol, DMSO, […] crop oil concentrate, and X-77 surfactant in a 48.5:39:10:1.5:1.0:0.02 v/v ratio to obtain spray solutions containing the application rate. Compound requirements are based upon a 12 mL application volume at a rate of 187 liters per hectare (L/ha). Formulated compounds were applied to the plant material with an overhead Mandel track sprayer equipped with […] nozzles calibrated to deliver 187 L/ha over an application area of 0.64 square meters at a spray height of 18 inches (43 cm) above the average plant canopy height. Control plants were sprayed in the same manner with the solvent blank. The treated plants and control plants were placed in a greenhouse as described above and watered by subirrigation to prevent wash-off of the test compounds. After 14 d, the condition of the test plants as compared with that of the nontreated and control plants was determined visually and scored on a scale of 0 to 100 percent where 0 corresponds to no injury and 100 corresponds to complete control. In the reporting of the results, Table A: Percent Growth Reduction Conversion Table was used.

[1] = ALOMY: blackgrass (Alopecurus myosuroides), 14 days after application, read-out: Visual Growth Reduction (%) 14 Days After Application, ALOMY
[2] = AMARE: redroot pigweed (Amaranthus retroflexus), 14 days after application, read-out: Visual Growth Reduction (%) 14 Days After Application, AMARE
[3] = AVEFA: wild oat (Avena fatua), 14 days after application, read-out: Visual Growth Reduction (%) 14 Days After Application, AVEFA
[4] = CHEAL: lambsquarters (Chenopodium album), 14 days after application, read-out: Visual Growth Reduction (%) 14 Days After Application, CHEAL
[5] = CIRAR: canada thistle (Cirsium arvense), 14 days after application, read-out: Visual Growth Reduction (%) 14 Days After Application, CIRAR
[6] = CYPES: yellow nutsedge (Cyperus esculentus), 14 days after application, read-out: Visual Growth Reduction (%) 14 Days After Application, CYPES
[7] = DIGSA: crabgrass (Digitaria sanguinalis), 14 days after application, read-out: Visual Growth Reduction (%) 14 Days After Application, DIGSA
[8] = ECHCG: barnyardgrass (Echinochloa crus-galli), 14 days after application, read-out: Visual Growth Reduction (%) 14 Days After Application, ECHCG
[9] = IPOHE: ivy-leaf morning glory (Ipomoea hederacea), 14 days after application, read-out: Visual Growth Reduction (%) 14 Days After Application, IPOHE
[10] = KCHSC: kochia (Bassia scoparia), 14 days after application, read-out: Visual Growth Reduction (%) 14 Days After Application, KCHSC
[11] = ORYSA: rice (Oryza sativa), 14 days after application, read-out: Visual Growth Reduction (%) 14 Days After Application, ORYSA
[12] = SETFA: giant foxtail (Setaria faberi), 14 days after application, read-out: Visual Growth Reduction (%) 14 Days After Application, SETFA
[13] = SORVU: grain sorghum (Sorghum vulgare), 14 days after application, read-out: Visual Growth Reduction (%) 14 Days After Application, SORVU
[14] = STEME: common chickweed (Stellaria media), 14 days after application, read-out: Visual Growth Reduction (%) 14 Days After Application, STEME
[15] = TRZAS: wheat, spring (Triticum aestivum), 14 days after application, read-out: Visual Growth Reduction (%) 14 Days After Application, TRZAS
[16] = blackgrass (Alopecurus myosuroides), 14 Days After Application, read-out: Visual Growth Reduction (%) ALOMY
[17] = canada thistle (Cirsium arvense), 14 Days After Application, read-out: Visual Growth Reduction (%) CIRAR
[18] = crabgrass (Digitaria sanguinalis), 14 Days After Application, read-out: Visual Growth Reduction (%) DIGSA
[19] = lambsquarters (Chenopodium album), 14 Days After Application, read-out: Visual Growth Reduction (%) CHEAL
[20] = redroot pigweed (Amaranthus retroflexus), 14 Days After Application, read-out: Visual Growth Reduction (%) AMARE
[21] = wild oat (Avena fatua), 14 Days After Application, read-out: Visual Growth Reduction (%) AVEFA
[22] = yellow nutsedge (Cyperus esculentus), 14 Days After Application, read-out: Visual Growth Reduction (%) CYPES

SMILES | pest or weed control at 140 g/ha [1] [%] | pest or weed control at 140 g/ha [2] [%] | pest or weed control at 140 g/ha [3] [%] | pest or weed control at 140 g/ha [4] [%] | pest or weed control at 140 g/ha [5] [%] | pest or weed control at 140 g/ha [8] [%] | pest or weed control at 140 g/ha [9] [%] | pest or weed control at 140 g/ha [10] [%] | pest or weed control at 140 g/ha [11] [%] | pest or weed control at 140 g/ha [12] [%] | pest or weed control at 140 g/ha [13] [%] | pest or weed control at 140 g/ha [14] [%] | pest or weed control at 140 g/ha [15] [%] | pest or weed control at 140 g/ha [16] [%] | pest or weed control at 140 g/ha [17] [%] | pest or weed control at 140 g/ha [18] [%] | pest or weed control at 140 g/ha [19] [%] | pest or weed control at 140 g/ha [20] [%] | pest or weed control at 140 g/ha [21] [%] | pest or weed control at 140 g/ha [22] [%] | also measured
COC(=O)c1nc(-c2ccc(C(F)(F)F)cc2Cl)c(SC)cc1Cl [F7, methyl 3-chloro-6-(2-chloro-4-(trifluoromethyl)phenyl)-5-(methylthio)picolinate] | 0 to 29 | 0 to 29 | 0 to 29 | 0 to 29 | 0 to 29 | – | – | – | – | – | – | – | – | – | – | – | – | – | – | – | pest or weed control at 140 g/ha [6]: 0 to 29%; pest or weed control at 140 g/ha [7]: 0 to 29%; pest or weed control at 140 g/ha (barnyardgrass (Echinochloa crus-galli), 14 Days After Application, read-out: Visual Growth Reduction (%) ECHCG): 0 to 29%; pest or weed control at 140 g/ha (common chickweed (Stellaria media), 14 Days After Application, read-out: Visual Growth Reduction (%) STEME): 0 to 29%; pest or weed control at 140 g/ha (giant foxtail (Setaria faberi), 14 Days After Application, read-out: Visual Growth Reduction (%) SETFA): 0 to 29%; pest or weed control at 140 g/ha (ivy-leaf morning glory (Ipomoea hederacea), 14 Days After Application, read-out: Visual Growth Reduction (%) IPOHE): 0 to 29%; pest or weed control at 140 g/ha (johnsongrass (Sorghum vulgare), 14 Days After Application, read-out: Visual Growth Reduction (%) SORVU): 0 to 29%; pest or weed control at 140 g/ha (kochia (Bassia scoparia), 14 Days After Application, read-out: Visual Growth Reduction (%) KCHSC): 0 to 29%; pest or weed control at 140 g/ha (rice (Oryza sativa), 14 Days After Application, read-out: Visual Growth Reduction (%) ORYSA): 0 to 29%; pest or weed control at 140 g/ha (wheat, spring (Triticum aestivum), 14 Days After Application, read-out: Visual Growth Reduction (%) TRZAS): 0 to 29%
COC(=O)c1nc(-c2ccc(OC(F)F)cc2Cl)c(F)cc1Cl [F200, Methyl 3-chloro-6-(2-chloro-4-(difluoromethoxy)phenyl)-5-fluoropicolinate] | – | – | – | – | – | 75 to 84 | 95 to 100 | 95 to 100 | 0 to 29 | 85 to 94 | 95 to 100 | 30 to 44 | 75 to 84 | 45 to 59 | 95 to 100 | 95 to 100 | 95 to 100 | 95 to 100 | 60 to 74 | 0 to 29 | –
COC(=O)c1nc(-c2cccc3c2OC(F)(F)O3)c(F)cc1Cl [F256, Methyl 3-chloro-6-(2,2-difluorobenzo[d][1,3]dioxol-4-yl)-5-fluoropicolinate] | – | – | – | – | – | 0 to 29 | 0 to 29 | 0 to 29 | 0 to 29 | 0 to 29 | 0 to 29 | 0 to 29 | 0 to 29 | 0 to 29 | 0 to 29 | 0 to 29 | 0 to 29 | 0 to 29 | 0 to 29 | 0 to 29 | –
O=C(OCc1ccccn1)c1nc(-c2ccc(C(F)(F)F)cc2Cl)ccc1Cl [F54, Pyridin-2-ylmethyl 3-chloro-6-(2-chloro-4-(trifluoromethyl)phenyl)picolinate] | 0 to 29 | 0 to 29 | 0 to 29 | 0 to 29 | 0 to 29 | 75 to 84 | 95 to 100 | 95 to 100 | 0 to 29 | 85 to 94 | 95 to 100 | 0 to 29 | 85 to 94 | – | – | – | – | – | – | – | pest or weed control at 140 g/ha [6]: 0 to 29%; pest or weed control at 140 g/ha [7]: 0 to 29%
C=Cc1cc(-c2nc(C(=O)OC)c(Cl)cc2F)c(OC)c2c1OC(F)(F)O2 [F372, Methyl 3-chloro-6-(2,2-difluoro-4-methoxy-7-vinylbenzo[d][1,3]dioxol-5-yl)-5-fluoropicolinate] | – | – | – | – | – | 0 to 29 | 95 to 100 | 0 to 29 | 0 to 29 | 0 to 29 | 30 to 44 | 0 to 29 | 0 to 29 | 0 to 29 | 0 to 29 | 0 to 29 | 0 to 29 | 45 to 59 | 0 to 29 | 0 to 29 | –
COC(=O)c1nc(-c2ccc3c(c2)C(F)(F)OC(F)(F)O3)c(F)cc1Cl [F204, Methyl 3-chloro-5-fluoro-6-(2,2,4,4-tetrafluoro-4H-benzo[d][1,3]dioxin-6-yl)picolinate] | – | – | – | – | – | 0 to 29 | 30 to 44 | 0 to 29 | 0 to 29 | 0 to 29 | 0 to 29 | 0 to 29 | 0 to 29 | 0 to 29 | 0 to 29 | 0 to 29 | 0 to 29 | 0 to 29 | 0 to 29 | 0 to 29 | –
COc1c(Cl)ccc(-c2ccc(Cl)c(C(=O)O)n2)c1F [F78, 3-chloro-6-(4-chloro-2-fluoro-3-methoxyphenyl)picolinic acid] | 0 to 29 | 45 to 59 | 0 to 29 | 75 to 84 | 60 to 74 | 0 to 29 | 45 to 59 | – | 0 to 29 | 0 to 29 | 0 to 29 | 30 to 44 | 0 to 29 | – | – | – | – | – | – | – | pest or weed control at 140 g/ha [6]: 0 to 29%; pest or weed control at 140 g/ha [7]: 0 to 29%
